{
  "source": "patent US20230257415A1",
  "about": "“COMPOUNDS FOR TREATING CNS DISORDERS” (SAGE THERAPEUTICS, INC., priority 2019, published 2023)",
  "data": [
    {"biological_target": "GABAA receptor", "assay": "[35S]-TBPS binding assay, rat brain cortical membranes, in the presence of GABA", "details": "inhibition of 3 nM [35S]-TBPS binding, 5 mM GABA, 90 min, room temp", "description": "[35S]-t-Butylbicyclophosphorothionate (TBPS) binding assays using rat brain cortical membranes in the presence of 5 mM GABA has been described (Gee et al, J. Pharmacol. Exp. Ther. 1987, 241, 346-353; Hawkinson et al, Mol. Pharmacol. 1994, 46, 977-985; Lewin, A.H et al., Mol. Pharmacol. 1989, 35, 189-194).\nBriefly, cortices are rapidly removed following decapitation of carbon dioxide-anesthetized Sprague-Dawley rats (200-250 g). The cortices are homogenized in 10 volumes of ice-cold 0.32 M sucrose using a glass/teflon homogenizer and centrifuged at 1500 x g for 10 min at 4° C. The resultant supernatants are centrifuged at 10,000 x g for 20 min at 4° C. to obtain the P2 pellets. The P2 pellets are resuspended in 200 mM NaCl/50 mM Na-K phosphate pH 7.4 buffer and centrifuged at 10,000 x g for 10 min at 4° C. This washing procedure is repeated twice and the pellets are resuspended in 10 volumes of buffer. Aliquots ([…]) of the membrane suspensions are incubated with 3 nM [^35S]-TBPS and […] aliquots of test drug dissolved in dimethyl sulfoxide (DMSO) (final 0.5%) in the presence of 5 mM GABA. The incubation is brought to a final volume of 1.0 mL with buffer. […] Following a 90 min incubation at room temp, the assays are terminated by filtration through glass fiber filters (Schleicher and Schuell No. 32) using a cell harvester (Brandel) and rinsed three times with ice-cold buffer. Filter bound radioactivity is measured by liquid scintillation spectrometry. Non-linear curve fitting of the overall data for each drug averaged for each concentration is done using Prism (GraphPad). […] The concentration of test compound producing 50% inhibition (IC50) of specific binding and the maximal extent of inhibition (Imax) are determined for the individual experiments with the same model used for the overall data and then the means ± SEM.s of the individual experiments are calculated.\nVarious compounds are or can be screened to determine their potential as modulators of [^35S]-TBPS binding in vitro. These assays are or can be performed in accordance with the above.", "units": {"IC50": "nM"}, "values": [
      {"compound": "CCOC[C@@]1(O)CC[C@@H]2C3CC[C@]4(C)[C@@H]([C@@H](C)NC(=O)c5ccc(F)cc5F)CCC[C@H]4[C@@H]3CC[C@@H]2C1", "note": "(stereo partly drawn) [Example 52, N-((1R)-1-((1S,4aS,4bR,6aR,8R,10aS,12aS)-8-(ethoxymethyl)-8-hydroxy-12a-methyloctadecahydrochrysen-1-yl)ethyl)-2,4-difluorobenzamide]", "IC50": "100 to 1000"},
      {"compound": "C[C@H](Cn1cc(C#N)cn1)[C@H]1CC[C@H]2[C@@H]3CC[C@H]4CC[C@](C)(O)CC[C@]4(C)[C@H]3CC[C@]12C", "note": "[Example 20, 1-((S)-2-((1R,3aS,3bR,5aS,8S,10aS,10bS,12aS)-8-hydroxy-8,10a,12a-trimethyloctadecahydrocyclohepta[a]cyclopenta[f]naphthalen-1-yl)propyl)-1H-pyrazole-4-carbonitrile]", "IC50": "< 100"},
      {"compound": "C[C@@]1(O)CC[C@H]2[C@H](CC[C@@H]3[C@@H]2CC[C@]2(C)[C@@H](CNC(=O)c4ccccc4)CCC[C@@H]32)C1", "note": "[Example 24, N-(((1S,4aS,4bR6aR,8R,10aS,10bR,12aS)-8-hydroxy-8,12a-dimethyloctadecahydrochrysen-1-yl)methyl)benzamide]", "IC50": "100 to 1000"},
      {"compound": "CC[C@]12CCC3[C@H]4CC[C@](O)(COC)C[C@H]4CC[C@H]3[C@@H]1CCC[C@@H]2CNC(=O)c1ccc(C#N)cc1", "note": "(stereo partly drawn) [Example 41, 4-cyano-N-(((1S,4aS,4bR,6aR,8R,10aS,12aS)-12a-ethyl-8-hydroxy-8-(methoxymethyl)octadecahydrochrysen-1-yl)methyl)benzamide]", "IC50": "100 to 1000"},
      {"compound": "COC[C@@]1(O)CC[C@H]2[C@H](CC[C@@H]3[C@@H]2CC[C@]2(C)[C@@H]([C@H](C)Cn4cc(C#N)cn4)CCC[C@@H]32)C1", "note": "[Example 2, 1-((S)-2-((1R,4aS,4bR,6aR,8R,10aS,10bR,12aS)-8-hydroxy-8-(methoxymethyl)-12a-methyloctadecahydrochrysen-1-yl)propyl)-1H-pyrazole-4-carbonitrile]", "IC50": "< 100"},
      {"compound": "C[C@@H]1CC[C@H]([C@H](C)Cn2cc(C#N)cn2)[C@@]2(C)CC[C@H]3[C@@H](CC[C@@H]4C[C@](C)(O)CC[C@@H]43)[C@H]12", "note": "[Example 12, 1-((S)-2-((1R,4R,4aS,4bR,6aR,8R,10aS,10bR,12aR)-8-hydroxy-4,8,12a-trimethyloctadecahydrochrysen-1-yl)propyl)-1H-pyrazole-4-carbonitrile]", "IC50": "< 100"},
      {"compound": "CN(C[C@H]1CCC[C@H]2[C@@H]3CC[C@@H]4C[C@](C)(O)CC[C@@H]4[C@H]3CC[C@]12C)C(=O)c1ccccc1", "note": "[Example 23, N-(((1S,4aS,4bR,6aR,8R,10aS,10bR,12aS)-8-hydroxy-8,12a-dimethyloctadecahydrochrysen-1-yl)-methyl)-N-methylbenzamide]", "IC50": "100 to 1000"},
      {"compound": "C[C@H](Cn1cc(C#N)cn1)[C@H]1CCC[C@H]2[C@@H]3CC[C@@H]4C[C@](C)(O)CC[C@@H]4[C@H]3CC[C@]12C", "note": "[Example 1, 1-((S)-2-((1R,4aS,4bR,6aR,8R,10aS,10bR,12aS)-8-hydroxy-8,12a-dimethyloctadecahydrochrysen-1-yl)propyl)-1H-pyrazole-4-carbonitrile]", "IC50": "< 100"},
      {"compound": "C[C@H](NC(=O)c1ccc(C#N)cc1)[C@H]1CCC[C@H]2[C@@H]3CC[C@@H]4C[C@](C)(O)CC[C@@H]4C3CC[C@]12C", "note": "(stereo partly drawn) [Example 42, 4-cyano-N-((1S)-1-((1S,4aS,4bR,6aR,8R,10aS,12aS)-8-hydroxy-8,12a-dimethyloctadecahydrochrysen-1-yl)ethyl)benzamide]", "IC50": "100 to 1000"},
      {"compound": "CCC[C@@]1(O)CC[C@@]2(C)[C@@H](CC[C@@H]3[C@@H]2CC[C@]2(C)[C@@H]([C@@H](C)Cn4nnnc4C)CCC[C@@H]32)C1", "note": "[Example 10, (2R,4aS,4bS,6aS,7R,10aS,10bR,12aS)-4a,6a-dimethyl-7-((R)-1-(5-methyl-1H-tetrazol-1-yl)propan-2-yl)-2-propyloctadecahydrochrysen-2-ol]", "IC50": "100 to 1000"},
      {"compound": "CC[C@]12CC[C@@](C)(O)C[C@H]1CC[C@H]1[C@@H]3CCC[C@H](CN(C)S(=O)(=O)c4ccccc4)[C@@]3(C)CC[C@@H]12", "note": "[Example 38, N-(((1S,4aS,4bS,6aR,8R,10aS,10bS,12aS)-10a-ethyl-8-hydroxy-8,12a-dimethyloctadecahydrochrysen-1-yl)methyl)-N-methylbenzenesulfonamide]", "IC50": "< 100"},
      {"compound": "C[C@H](Nc1cccc(C#N)c1)[C@H]1CCC[C@H]2[C@@H]3CC[C@@H]4C[C@](C)(O)CC[C@@H]4C3CC[C@]12C", "note": "(stereo partly drawn) [Example 48, 3-(((1S)-1-((1S,4aS,4bR,6aR,8R,10aS,12aS)-8-hydroxy-8,12a-dimethyloctadecahydrochrysen-1-yl)ethyl)amino)benzonitrile]", "IC50": "< 100"},
      {"compound": "C[C@@]1(O)CC[C@H]2[C@H](CC[C@@H]3[C@@H]2CC[C@]2(C)[C@@H](CNS(=O)(=O)c4ccccc4)CCC[C@@H]32)C1", "note": "[Example 25, N-(((1S,4aS,4bR,6aR,8R,10aS,10bR,12aS)-8-hydroxy-8,12a-dimethyloctadecahydrochrysen-1-yl)methyl)benzenesulfonamide]", "IC50": "< 100"},
      {"compound": "CC[C@]12CC[C@@](C)(O)C[C@H]1CC[C@H]1[C@@H]3CCC[C@H](CN(C)C(=O)c4ccccc4)[C@@]3(C)CC[C@@H]12", "note": "[Example 37, N-(((1S,4aS,4bS,6aR,8R,10aS,10bS,12aS)-10a-ethyl-8-hydroxy-8,12a-dimethyloctadecahydrochrysen-1-yl)methyl)-N-methylbenzamide]", "IC50": "100 to 1000"},
      {"compound": "CC[C@]12CC[C@@](C)(O)C[C@H]1CC[C@H]1[C@@H]3CCC[C@H](CNC(=O)c4ccccc4)[C@@]3(C)CC[C@@H]12", "note": "[Example 36, N-(((1S,4aS,4bS,6aR,8R,10aS,10bS,12aS)-10a-ethyl-8-hydroxy-8,12a-dimethyloctadecahydrochrysen-1-yl)methyl)benzamide]", "IC50": "100 to 1000"},
      {"compound": "CC[C@]12CC[C@@](C)(O)C[C@H]1CC[C@H]1[C@@H]3CCC[C@H](CNS(=O)(=O)c4ccccc4)[C@@]3(C)CC[C@@H]12", "note": "[Example 39, N-(((1S,4aS,4bS,6aR,8R,10aS,10bS,12aS)-10a-ethyl-8-hydroxy-8,12a-dimethyloctadecahydrochrysen-1-yl)methyl)benzenesulfonamide]", "IC50": "100 to 1000"},
      {"compound": "C[C@@]1(O)CC[C@H]2[C@H](CC[C@@H]3[C@@H]2CC[C@]2(C)[C@@H](CNC(=O)c4ccccc4F)CCC[C@@H]32)C1", "note": "[Example 30, 2-fluoro-N-(((1S,4aS,4bR,6aR,8R,10aS,10bR,12aS)-8-hydroxy-8,12a-dimethyloctadecahydrochrysen-1-yl)methyl)benzamide]", "IC50": "< 100"},
      {"compound": "CCOC[C@@]1(O)CC[C@@H]2C3CC[C@]4(C)[C@@H]([C@H](C)NC(=O)c5ccc(C#N)cc5F)CCC[C@H]4[C@@H]3CC[C@@H]2C1", "note": "(stereo partly shown) [Example 55]", "IC50": "100 to 1000"},
      {"compound": "C[C@@]1(O)CC[C@H]2[C@H](CC[C@@H]3[C@@H]2CC[C@]2(C)[C@@H](CNS(=O)(=O)C4CC4)CCC[C@@H]32)C1", "note": "[Example 32, N-(((1S,4aS,4bR,6aR,8R,10aS,10bR,12aS)-8-hydroxy-8,12a-dimethyloctadecahydrochrysen-1-yl)methyl)cyclopropanesulfonamide]", "IC50": "100 to 1000"},
      {"compound": "C[C@@H](Nc1cccc(C#N)c1)[C@H]1CCC[C@H]2[C@@H]3CC[C@@H]4C[C@](C)(O)CC[C@@H]4C3CC[C@]12C", "note": "(stereo partly drawn) [Example 49, 3-(((1R)-1-((1S,4aS,4bR,6aR,8R,10aS,12aS)-8-hydroxy-8,12a-dimethyloctadecahydrochrysen-1-yl)ethyl)amino)benzonitrile]", "IC50": "< 100"},
      {"compound": "COC[C@@]1(O)CC[C@@H]2C3CC[C@]4(C)[C@@H]([C@H](C)NC(=O)c5ccc(C#N)cc5)CCC[C@H]4[C@@H]3CC[C@@H]2C1", "note": "(stereo partly drawn) [Example 47, 4-cyano-N-((1S)-1-((1S,4aS,4bR,6aR,8R,10aS,12aS)-8-hydroxy-8-(methoxymethyl)-12a-methyloctadecahydrochrysen-1-yl)ethyl)benzamide]", "IC50": "100 to 1000"},
      {"compound": "C[C@H](Nc1ccc(C#N)cc1)[C@H]1CCC[C@H]2[C@@H]3CC[C@@H]4C[C@](C)(O)CC[C@@H]4C3CC[C@]12C", "note": "(stereo partly drawn) [Example 50, 4-(((1S)-1-((1S,4aS,4bR,6aR,8R,10aS,12aS)-8-hydroxy-8,12a-dimethyloctadecahydrochrysen-1-yl)ethyl)amino)benzonitrile]", "IC50": "< 100"}
    ]}
  ]
}
